Source: US9447086B2, “6-amino acid heteroaryldihydropyrimidines for the treatment and prophylaxis of hepatitis B virus infection” (priority 2012, dated 2016)
Converted amounts (≈) assume the structure as drawn.

Columns and labels:
[1] = Metabolic stability study in human microsome; type: in vitro ADME
In short: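 Depletion of 1 μM compound followed by LC-MS/MS over 0–30 min (0, 3, 6, 9, 15, 30 min) after methanol quench. Incubations at 37 °C, pH 7.4 phosphate buffer, 0.5 mg/mL microsomal protein, with NADPH (1 mM) or a regenerating system as cofactor; controls lacked cofactor.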

[2] = test system: HBV; assay: Selectivity index (CC50 value/EC50 value); type: cell-based, Hepatitis B virus
In short: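 Ratio of CC50 to EC50, measuring antiviral activity against HBV relative to cytotoxicity in vitro; higher values indicate greater separation between viral inhibition and cell death.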

[3] = test system: HBV; assay: Anti-HBV activity in vitro in HepG2.2.15 cells (extracellular HBV DNA by qPCR); type: cell-based, Hepatitis B virus; details: Hepatitis B virus; HepG2.2.15 cells; in-house data; read-out: EC50
In short: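 Supernatant HBV DNA was measured by qPCR after viral DNA extraction. Samples came from 5-day cultures of HepG2.2.15 cells, an HBV-genome-transfected HepG2 line, exposed to half-log compound dilutions in medium containing 0.5% DMSO.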

[4] = test system: HepDE19 cells; assay: Cytotoxicity (CC50) in HepDE19 cells, CCK-8 cell viability; type: cell-based
In short: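 HBV-transfected HepG2-derived HepDE19 cells grown in DMEM-F12 with 10% FBS and G418. Viability read five days after treatment by CCK-8, 2 h at 37 °C, absorbance at 450 and 630 nm.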

[5] = Lyophilisation solubility assay (Lysa); type: physicochemical; details: phosphate buffer, pH 6.5, aqueous buffer, thermodynamic from solid
In short: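 Solubility in μg/mL is read by UV or HPLC-UV on filtrate, neat and diluted 1/10. Before filtration, the residue from evaporated 10 mM DMSO stock was taken up in pH 6.5 0.05 M phosphate buffer, then stirred 1 h, shaken 2 h and stood overnight, in duplicate.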

Row | SMILES | Human Hepatic Clearance [1] [mL/min/kg] | Selectivity index (CC50/EC50) [2] | EC50 [3] [nM] | CC50 [4] [nM] | solubility thermodynamic [5] [µg/mL]
1 | CCOC(=O)C1=C(CN2CCOC[C@H]2C(=O)O)NC(c2nccs2)=N[C@H]1c1ccc(F)c(F)c1Br [Example 128, (3S)-4-[[(4R)-4-(2-Bromo-3,4-difluorophenyl)-5-ethoxycarbonyl-2-(1,3-thiazol-2-yl)-1,4-dihydropyrimidin-6-yl]methyl]morpholine-3-carboxylic acid] | 0.26 | 85000 | 0.6 | 51000 | > 710
2 | CCOC(=O)C1=C(CN2CCOC[C@H]2C(=O)O)NC(c2nccs2)=N[C@H]1c1ccc(F)c(F)c1Cl [Example 60, (S)-4-[(R)-6-(2-Chloro-3,4-difluoro-phenyl)-5-ethoxycarbonyl-2-thiazol-2-yl-3,6-dihydro-pyrimidin-4-ylmethyl]-morpholine-3-carboxylic acid] | 4.8 | 47783 | 0.6 | 29000 | > 703
3 | COC(=O)C1=C(CN2CCO[C@H](C)[C@H]2C(=O)O)NC(c2nccs2)=N[C@H]1c1ccc(F)cc1Cl [Example 104, (2R,3S)-4-[(R)-6-(2-Chloro-4-fluoro-phenyl)-5-methoxycarbonyl-2-thiazol-2-yl-3,6-dihydro-pyrimidin-4-ylmethyl]-2-methyl-morpholine-3-carboxylic acid] | 5.42 | >14286 | 7 | > 100000 | > 667
4 | CCOC(=O)C1=C(CN2CCOC[C@H]2C(=O)O)NC(c2nccs2)=N[C@H]1c1ccc(F)cc1 [Example 54, (S)-4-[(S)-5-Ethoxycarbonyl-6-(4-fluoro-phenyl)-2-thiazol-2-yl-3,6-dihydro-pyrimidin-4-ylmethyl]-morpholine-3-carboxylic acid] | 0 | 4293 | 14 | 62000 | > 606
5 | COC(=O)C1=C(CN2CCOC[C@@]2(C)C(=O)O)NC(c2nccs2)=N[C@H]1c1ccc(F)cc1Cl [Example 121, (S)-4-(((R)-6-(2-Chloro-4-fluorophenyl)-5-(methoxycarbonyl)-2-(thiazol-2-yl)-3,6-dihydropyrimidin-4-yl)methyl)-3-methylmorpholine-3-carboxylic acid] | 1.42 | >5000 | 20 | > 100000 | 600 (≈ 1180 µM)
6 | COC(=O)C1=C(CN2CCOC[C@H]2C(=O)O)NC(c2nc(C)cs2)=N[C@H]1c1ccc(F)cc1Cl [Example 17, (S)-4-[(R)-6-(2-Chloro-4-fluoro-phenyl)-5-methoxycarbonyl-2-(4-methyl-thiazol-2-yl)-3,6-dihydro-pyrimidin-4-ylmethyl]-morpholine-3-carboxylic acid] | 0.74 | >14286 | 7 | > 100000 | > 673
7 | COC(=O)C1=C(CN2CCOC[C@H]2C(=O)O)NC(c2nccs2)=N[C@H]1c1ccc(F)cc1Br [Example 81, (S)-4-[(R)-6-(2-Bromo-4-fluoro-phenyl)-5-methoxycarbonyl-2-thiazol-2-yl-3,6-dihydro-pyrimidin-4-ylmethyl]-morpholine-3-carboxylic acid] | 5.33 | >16667 | 6 | > 100000 | > 691
8 | CC(C)OC(=O)C1=C(CN2CCOC[C@H]2C(=O)O)NC(c2nccs2)=N[C@H]1c1ccc(F)cc1Cl [Example 98, (S)-4-[(R)-6-(2-Chloro-4-fluoro-phenyl)-5-isopropoxycarbonyl-2-thiazol-2-yl-3,6-dihydro-pyrimidin-4-ylmethyl]-morpholine-3-carboxylic acid] | 0 | 4224 | 17 | 72000 | > 650
9 | COC(=O)C1=C(CN2CCOC[C@H]2C(=O)O)NC(c2nccs2)=N[C@H]1c1ccc(F)c(F)c1Cl [Example 73, (S)-4-[(R)-6-(2-Chloro-3,4-difluoro-phenyl)-5-methoxycarbonyl-2-thiazol-2-yl-3,6-dihydro-pyrimidin-4-ylmethyl]-morpholine-3-carboxylic acid] | 0 | >83333 | 1.2 | > 100000 | > 656
10 | CCOC(=O)C1=C(CN2CCOC[C@H]2C(=O)O)NC(c2nccs2)=N[C@H]1c1ccc(F)cc1F [Example 58, (S)-4-[(R)-6-(2,4-Difluoro-phenyl)-5-ethoxycarbonyl-2-thiazol-2-yl-3,6-dihydro-pyrimidin-4-ylmethyl]-morpholine-3-carboxylic acid] | 1.26 | >7353 | 14 | > 100000 | > 638
11 | CCOC(=O)C1=C(CN2CCOC[C@H]2C(=O)O)NC(c2nccs2)=N[C@H]1c1cccc(F)c1Cl [Example 63, (S)-4-[(R)-6-(2-Chloro-3-fluoro-phenyl)-5-ethoxycarbonyl-2-thiazol-2-yl-3,6-dihydro-pyrimidin-4-ylmethyl]-morpholine-3-carboxylic acid] | 1.71 | >125000 | 0.8 | > 100000 | > 679
12 | COC(=O)C1=C(CN2CCOC[C@H]2C(=O)O)NC(c2nc(C(F)(F)F)cs2)=N[C@H]1c1ccc(F)cc1Cl [Example 95, (S)-4-[(R)-6-(2-Chloro-4-fluoro-phenyl)-5-methoxycarbonyl-2-(4-trifluoromethyl-thiazol-2-yl)-3,6-dihydro-pyrimidin-4-ylmethyl]-morpholine-3-carboxylic acid] | 3.04 | 40000 | 2.5 | > 100000 | > 705
13 | COC(=O)C1=C(CN2CCOC[C@H]2C(=O)O)NC(c2nccs2)=N[C@H]1c1cccc(F)c1Cl [Example 47, (S)-4-[(R)-6-(2-Chloro-3-fluoro-phenyl)-5-methoxycarbonyl-2-thiazol-2-yl-3,6-dihydro-pyrimidin-4-ylmethyl]-morpholine-3-carboxylic acid] | 1.46 | >2273 | 4.4 | > 100000 | > 660
14 | CCOC(=O)C1=C(CN2CCOC[C@H]2C(=O)O)NC(c2nccs2)=N[C@H]1c1ccc(F)cc1Cl [Example 31, (S)-4-[(R)-6-(2-Chloro-4-fluoro-phenyl)-5-ethoxycarbonyl-2-thiazol-2-yl-3,6-dihydro-pyrimidin-4-ylmethyl]-morpholine-3-carboxylic acid] | 4.68 | >50000 | 2 | > 100000 | 630 (≈ 1240 µM)
